Results on three compounds are retold here after patent US10266523B2, “Crystaline forms of N-[6-(cis-2,6-dimethylmorpholine-4-yl)pyridine-3-yl]-2-Methyl-4′-(trifluoromethoxy) [1,1′-biphenyl]-3-Methanamide monophosphate, and process of preparation thereof” (CRYSTAL PHARMATECH CO., LTD., priority 2015, dated 2019).

Data set [1] in a line: Hygroscopicity assessment by dynamic vapor sorption (DVS). It is filed as physicochemical. The following applies: 25° C.; for Weight Gain at 80% Relative Humidity: DVS, 10 mg. The method, then:
Dynamic Vapor Sorption (DVS) is measured via a SMS (Surface Measurement Systems) DVS Intrinsic, using 10 mg of crystalline form. Typical Parameters for DVS test are listed below: Temperature: 25° C. Gas and flow rate: N2, 200 mL/min dm/dt: 0.002%/min RH range: 0% RH to 95% RH Stable duration: 10 min Maximum equilibrate time: 180 min Humidity gradient: 10%(0% RH-90% RH), 5%(90% RH-95% RH), Hygroscopicity of 10 mg of monophosphate Form A of compound of formula (I) was tested using dynamic vapor sorption (DVS). About hygroscopicity characterization description and definition of hygroscopicity (Chinese Pharmacopoeia 2010 edition appendix XIXJ Drug hygroscopic test guidelines, test at 25° C.+/−1° C., 80% Relative Humidity) • deliquescent: sufficient water is absorbed to form a liquid. • very hygroscopic: increase in mass is equal to or greater than 15%. • hygroscopic: increase in mass is less than 15% and equal to or greater than 2%. • slightly hygroscopic: increase in mass is less than 2% and equal to or greater than 0.2%. • no or almost no hygroscopic: increase in mass is less than 0.2%.

Data set [2] is described as follows: Solid-state storage stability, form change detected by XRPD. Type of data set: physicochemical. Conditions: 120 days. From the text: The samples after storage were detected by XRPD.
The nature of data set [3]: Particle size distribution test (Microtrac S3500 laser particle size analyzer, wet process). Conditions: for MV (average particle size calculated by volume): dispersion medium Isopar G; for D10 / D50 / D90: volume distribution, Isopar G. It is filed as physicochemical. The method, then:
The particle size distribution test in the present disclosure is acquired by the S3500 laser particle size analyzer of Microtrac. Microtrac S3500 is equipped with the Sample Delivery Controller. The test is carried out by wet process, and the dispersion medium is Isopar G The parameters are as follow: [table] 10-30 mg sample was dispersed with 10 mL Isopar G (containing 0.2% of lecithin). The sample is added into the SDC sample injection system when fully mixed. Start the experiment when the sample amount indication chart reaches a proper position. The result of particle size distribution test is shown in table 13, the particle size distribution diagram of the Form A is shown in FIG. 10, and the particle size distribution diagram of the Form B of monophosphate is shown in FIG. 11.

The nature of data set [4]: Stability of crystalline forms in water and simulated biological media (saturated solution, XRPD of solid). Type of data set: physicochemical. Conditions: for Final form: SGF, listed as Crystalline Form A of monophosphate. The method, then:
After being equilibrated for 1 hour, 4 hours and 24 hours, a small amount solid of each saturated solution was carried out for XRPD test, the testing result is shown in table 9, and the XRPD contrast diagram after 1 hour is shown in FIG. 9, wherein a is starting form of diphosphonate, b is monophosphate Form B of the present disclosure, c is the crystalline form of the diphosphonate after 1 hour in water, d is the crystalline form of the diphosphonate after 1 hour in SGF, e is the crystalline form of the diphosphonate after 1 hour in the FaSSIF, and f is the crystalline form of the diphosphonate after 1 hour in FeSSIF.

For data set [5] the following is noted: cited from earlier work.
Where [6] appears, read: listed as Crystalline Form A of monophosphate.
Setting [7] is: listed as Crystalline Form B of monophosphate.

Entries after “also recorded” stand apart in the source; their conditions may differ. Like-named read-outs stand apart in the source and are kept apart here.

In the case of `Cc1c(C(=O)Nc2ccc(N3CC(C)OC(C)C3)nc2)cccc1-c1ccc(OC(F)(F)F)cc1` (stereo not drawn) [Form A, N-[6-(cis-2,6-dimethylmorpholine-4-yl)pyridine-3-yl]-2-methyl-4′-(trifluoromethoxy) [1,1′-biphenyl]-3-carboxamide monophosphate], the “hygroscopicity class (Chinese Pharmacopoeia 2010 definition)” value in data set [1] (80% Relative Humidity) was “slightly hygroscopic (increase in mass is less than 2% and equal to or greater than 0.2%)”. Also, the “Weight Gain at 80% Relative Humidity” value in data set [1] and in data set [1] (listed as monophosphate Form A) was 0.59% throughout. For the same compound, the “Form Change” value is “Form A” in data set [2] (5° C.); “Form A” in data set [2] (25° C./60% RH); “Form A and Form B” in data set [2] (40° C./75% RH). Besides, the “particle size homogeneity and dispersion” value in data set [3] was “homogeneous particle size and good dispersion”. Besides, the “MV (average particle size calculated by volume)” value in data set [3] (setting [6]) is on record as 136.5 um. The compound further showed a D10 in data set [3] (setting [6]) of 22.7 um. In data set [3] (setting [6]), this compound showed a D50 of 100.2 um. The compound also had a D90 in data set [3] (setting [6]) of 305.2 um. Also, the Final form result in data set [4] (equilibrium time 1 h), in data set [4] (equilibrium time 4 h) and in data set [4] (equilibrium time 24 h) was “Changed” throughout. The “stability of crystalline form in media” value in data set [4] (water, FaSSIF and FeSSIF, after 1, 4, and 24 hours) is “stable”.
`Cc1c(C(=O)Nc2ccc(N3CC(C)OC(C)C3)nc2)cccc1-c1ccc(OC(F)(F)F)cc1` (stereo not drawn) [Form B, N-[6-(cis-2,6-dimethylmorpholine-4-yl)pyridine-3-yl]-2-methyl-4′-(trifluoromethoxy) [1,1′-biphenyl]-3-carboxamide monophosphate]: the “Form Change” value in data set [2] (5° C.) was “Form B”. Moreover, the “Form Change” value in data set [2] (25° C./60% RH) is “Form B”. Further, the “Form Change” value in data set [2] (40° C./75% RH) is “remains unchanged; also recorded: Form B”. The “particle size homogeneity and dispersion” value in data set [3] is “homogeneous particle size and good dispersion”. Also, in data set [3] (setting [7]), the “MV (average particle size calculated by volume)” value is listed as 55.4 um, the D10 was 8.8 um, the D50 is 37.5 um and the D90 stood at 124.2 um. Further, the “stability of crystalline form in media” value in data set [4] (all of the four kinds of media (water, SGF, FaSSIF, FeSSIF)) is given as “do not change”.
Consider `Cc1c(C(=O)Nc2ccc(N3C[C@@H](C)O[C@@H](C)C3)nc2)cccc1-c1ccc(OC(F)(F)F)cc1.O=P(O)(O)O.O=P(O)(O)O` [Diphosphonate in CN102159570, reference compound], for which the “XRPD of the crystalline form after storage” value is “slightly changed” in data set [5] (50° C./75% RH, 2 weeks) and “changed” in data set [5] (80° C./75% RH, two weeks). The “Form Change” value is on record as “Diphosphonate” in data set [2] (5° C.); “Diphosphonate” in data set [2] (25° C./60% RH); “partly changed into Form B” in data set [2] (40° C./75% RH, listed as diphosphonate in CN102159570). Also, the “form conversion in media” value in data set [4] (four media, equilibrated for 1 hour) is on record as “convert into Form B of monophosphate”.
